Test systems include Bacillus megaterium; Micrococcus luteus; Aureobasidium pullulans; Escherichia coli D31; Escherichia coli BL21AI; Escherichia coli DC2; Pasteurella multocida; Leuconostoc lactis; Streptococcus uberis; Staphylococcus aureus; Escherichia coli; Candida krusei ATCC 6258; Listeria innocua; Candida albicans SC5314; Bacillus cereus; Escherichia coli 804; Escherichia coli 780; Staphylococcus aureus 75.

Common to all, as to experiment: ≥ marks a high value that may be exact or a test limit, other limits are often not marked, values filed in µg/mL are converted to µM
In assay [1] the test system is Escherichia coli PCM 2057.
For assay [2], the system named is Staphylococcus aureus PCM 1944.
The test system of assay [3] is Escherichia coli ATCC 25922.
Assay [4] concerns Corynebacterium glutamicum ATCC 13032.
Assay [5] has as its system Staphylococcus aureus ATCC 9144.
In assay [6] the test system is Candida albicans ATCC 10231.
The subject of assay [7] is Pseudomonas aeruginosa ATCC 27853.
Assay [8] has as its system Bacillus subtilis ATCC 23857.
In assay [9] the test system is Klebsiella pneumoniae K6 ATCC 700603.
Assay [10] relates to Salmonella enterica subsp. enterica serovar Typhimurium ATCC 700408.
In assay [11] the test system is Micrococcus luteus ATCC 10240.
Assay [12] concerns Klebsiella pneumoniae DSM 681.
Assay [13] has as its system Escherichia coli DSM 1103.
The test system of assay [14] is Staphylococcus epidermidis.
The test system of assay [15] is Candida albicans ATCC 90028.
Assay [16] deals with Batrachochytrium dendrobatidis.
Assay [17] concerns Candida parapsilosis ATCC 22019.
In assay [18] the test system is Acinetobacter baumannii ATCC 19606.
The subject of assay [19] is Staphylococcus aureus 113.
The test system of assay [20] is Pseudomonas aeruginosa ATCC 9027.
Assay [21] concerns Pseudomonas aeruginosa 50.
Assay [22] deals with Klebsiella pneumoniae ATCC 700603.
The subject of assay [23] is Staphylococcus aureus ATCC 29213.
Assay [24] has as its system Acinetobacter baumannii 9931.
The subject of assay [25] is Acinetobacter baumannii 97830.
Assay [26] deals with Staphylococcus epidermidis ATCC 12228.
Assay [27] has as its system Pseudomonas aeruginosa 73.

Molecules are shown by their SMILES. Converted amounts (≈) assume the structure as drawn.

As to `C[C@@H]1NC(=O)[C@H](C)NC(=O)[C@H](CCCCN)NC(=O)[C@@H](N)CSSC[C@@H](C(=O)O)NC(=O)[C@H](Cc2ccccc2)NC1=O` [CKAAFC], the MIC in assay [1] and in assay [2] was at least 1560 µM in each case.

As to `C[C@H](NC(=O)[C@H](CCCCN)NC(=O)[C@H](Cc1c[nH]c2ccccc12)NC(=O)[C@H](Cc1c[nH]c2ccccc12)NC(=O)[C@H](Cc1c[nH]c2ccccc12)NC(=O)[C@@H]1CCCN1C(=O)[C@H](CCCCN)NC(=O)[C@H](CCCCN)NC(=O)CN)C(=O)N[C@@H](CCCCN)C(N)=O` [GKKPWWWKAK], the MIC is 0.761 µM (≈ 0.999 µg/mL) in the assay with Bacillus megaterium; 23.8 µM (≈ 31.3 µg/mL) in assay [3]; 1.52 µM (≈ 2 µg/mL) in [4]; 23.8 µM (≈ 31.3 µg/mL) in the assay with Micrococcus luteus; at least 95.1 µM in [5]; 23.8 µM (≈ 31.3 µg/mL) in assay [6]. Besides, the MIC with Aureobasidium pullulans came to 11.9 µM (≈ 15.6 µg/mL); in [7], 190 µM (≈ 250 µg/mL); in [8], 2.97 µM (≈ 3.9 µg/mL).

`C[C@H](NC(=O)[C@H](CCCCN)NC(=O)[C@H](Cc1c[nH]c2ccccc12)NC(=O)[C@H](Cc1c[nH]c2ccccc12)NC(=O)[C@H](Cc1c[nH]c2ccccc12)NC(=O)[C@H](Cc1c[nH]c2ccccc12)NC(=O)[C@H](CCCCN)NC(=O)[C@H](CCCCN)NC(=O)CN)C(=O)N[C@@H](CCCCN)C(N)=O` [GKKWWWWKAK]: the minimum inhibitory concentration (MIC) with Bacillus megaterium is 2.78 µM (≈ 3.9 µg/mL); in assay [3], 44.5 µM (≈ 62.5 µg/mL); in assay [4], 5.56 µM (≈ 7.79 µg/mL); against Micrococcus luteus, 11.1 µM (≈ 15.6 µg/mL); in assay [5] it was at least 89.1 µM; in assay [6], 11.1 µM (≈ 15.6 µg/mL). The minimal inhibitory concentration (MIC) was 5.56 µM (≈ 7.79 µg/mL) in the assay with Aureobasidium pullulans, 89.1 µM (≈ 125 µg/mL) in assay [7] and 5.56 µM (≈ 7.79 µg/mL) in assay [8].

For `CC[C@H](C)[C@H](NC(=O)[C@H](CCCN=C(N)N)NC(=O)[C@@H]1CCCN1C(=O)[C@H](Cc1cnc[nH]1)NC(=O)[C@@H]1CCCN1C(=O)[C@@H]1CCCN1C(=O)[C@H](CCCN=C(N)N)NC(=O)[C@@H]1CCCN1C(=O)[C@H](CCCN=C(N)N)NC(=O)[C@@H]1CCCN1C(=O)[C@@H](NC(=O)[C@H](Cc1ccc(O)cc1)NC(=O)[C@@H](NC(=O)[C@@H]1CCCN1C(=O)[C@H](CCCN=C(N)N)NC(=O)[C@H](CC(N)=O)NC(=O)[C@H](CC(N)=O)NC(=O)CN)C(C)C)[C@@H](C)CC)C(N)=O` [GNNRPVYIPRPRPPHPRI], the minimum inhibitory concentration (MIC) in the assay with Escherichia coli D31 came out at 30 µM (≈ 64 µg/mL); in [9], 3.74 µM (≈ 8 µg/mL); in assay [10], 0.936 µM (≈ 2 µg/mL); with Escherichia coli BL21AI, 0.229 µM (≈ 0.49 µg/mL); in assay [11], 0.459 µM (≈ 0.98 µg/mL); in assay [12] it was 7.31 µM (≈ 15.6 µg/mL). Also, the minimum inhibitory concentration (MIC) was 0.459 µM (≈ 0.98 µg/mL) in assay [13] and 3.66 µM (≈ 7.81 µg/mL) with Escherichia coli DC2.

As for `CC[C@H](C)[C@H](NC(=O)[C@@H](NC(=O)CN)C(C)C)C(=O)N[C@@H](CC(=O)O)C(=O)N[C@@H](C)C(=O)N[C@@H](C)C(=O)N[C@@H](CCCCN)C(=O)N[C@@H](CCCCN)C(=O)N[C@@H](Cc1c[nH]c2ccccc12)C(=O)N[C@@H](CC(N)=O)C(=O)N[C@H](C(=O)N[C@@H](CC(C)C)C(=O)N[C@@H](CCCCN)C(=O)N[C@@H](CC(N)=O)C(=O)N[C@@H](CC(C)C)C(=O)N[C@@H](Cc1ccccc1)C(N)=O)C(C)C` [GVIDAAKKVVNVLKNLF], the minimum inhibitory concentration (MIC) was 27.3 µM (≈ 49.6 µg/mL) against Pasteurella multocida; 1.64 µM (≈ 2.98 µg/mL) in the assay with Leuconostoc lactis; 6.56 µM (≈ 11.9 µg/mL) in assay [14]; 6.56 µM (≈ 11.9 µg/mL) in the assay on Streptococcus uberis; 27.3 µM (≈ 49.6 µg/mL) in the assay on Micrococcus luteus; 13.7 µM (≈ 24.8 µg/mL) against Staphylococcus aureus. The MIC is at least 70 µM in assay [15]; 54.7 µM (≈ 99.3 µg/mL) with Escherichia coli; at least 35 µM against Candida krusei ATCC 6258; 27.3 µM (≈ 49.6 µg/mL) with Listeria innocua; at least 100 µM in assay [16]; at least 35 µM with Candida albicans SC5314. Moreover, the minimal inhibitory concentration (MIC) is 13.7 µM (≈ 24.8 µg/mL) against Bacillus cereus and at least 70 µM in assay [17].

On to `NC(=O)[C@H](Cc1c[nH]c2ccccc12)NC(=O)[C@H](CCCN=C(N)N)NC(=O)[C@H](CCCN=C(N)N)NC(=O)[C@H](Cc1c[nH]c2ccccc12)NC(=O)[C@H](Cc1c[nH]c2ccccc12)NC(=O)[C@H](Cc1c[nH]c2ccccc12)NC(=O)[C@H](CCCN=C(N)N)NC(=O)[C@H](CCCN=C(N)N)NC(=O)[C@@H](N)Cc1c[nH]c2ccccc12` [WRRWWWRRW], for which the MIC in [18] is 16 µM (≈ 25.2 µg/mL); in assay [19], 4 µM (≈ 6.29 µg/mL); against Escherichia coli 804, at least 32 µM; in assay [20], 8 µM (≈ 12.6 µg/mL); against Escherichia coli 780, 16 µM (≈ 25.2 µg/mL); in [21], 16 µM (≈ 25.2 µg/mL). For the same compound, the MIC in assay [22] came out at 16 µM (≈ 25.2 µg/mL); in assay [23], 4 µM (≈ 6.29 µg/mL); in [24], 16 µM (≈ 25.2 µg/mL); with Staphylococcus aureus 75, 8 µM (≈ 12.6 µg/mL); in assay [25] it was 16 µM (≈ 25.2 µg/mL); in assay [7], 4 µM (≈ 6.29 µg/mL). The results for the MIC in assay [26], in assay [8] and in assay [27] were 2 µM (≈ 3.15 µg/mL), 4 µM (≈ 6.29 µg/mL) and 8 µM (≈ 12.6 µg/mL), respectively.

As to `NC(=O)[C@H](Cc1c[nH]c2ccccc12)NC(=O)[C@H](CCCN=C(N)N)NC(=O)[C@H](Cc1c[nH]c2ccccc12)NC(=O)[C@H](Cc1c[nH]c2ccccc12)NC(=O)[C@H](Cc1c[nH]c2ccccc12)NC(=O)[C@H](CCCN=C(N)N)NC(=O)[C@@H](N)Cc1c[nH]c2ccccc12` [WRWWWRW], the MIC in assay [18] was determined as 32 µM (≈ 40.3 µg/mL); in assay [19] it was 4 µM (≈ 5.04 µg/mL); in the assay with Escherichia coli 804, 8 µM (≈ 10.1 µg/mL); in assay [20] it was 32 µM (≈ 40.3 µg/mL); against Escherichia coli 780, 8 µM (≈ 10.1 µg/mL); in assay [21], 16 µM (≈ 20.2 µg/mL). Also, the minimum inhibitory concentration (MIC) in assay [22] came to 8 µM (≈ 10.1 µg/mL); in assay [23], 8 µM (≈ 10.1 µg/mL); in [24] it was 8 µM (≈ 10.1 µg/mL); against Staphylococcus aureus 75, 4 µM (≈ 5.04 µg/mL); in assay [25], 8 µM (≈ 10.1 µg/mL); in assay [7], 16 µM (≈ 20.2 µg/mL). Further, the MIC was 2 µM (≈ 2.52 µg/mL) in [26], 4 µM (≈ 5.04 µg/mL) in [8] and at least 32 µM in assay [27].

Values taken from DBAASP.
